Experimental data from ChEMBL document CHEMBL1155531, “Structure guided design of 5-arylindazole glucocorticoid receptor agonists and antagonists” (J Med Chem, 2010).

Legend:
[1] = target: T1, Glucocorticoid receptor (Homo sapiens, UniProt P04150); assay: Antagonist activity at GR in human A549 cells transfected with luciferase gene linked to MMTV promoter assessed as inhibition of dexamethasone-induced luciferase transactivation activity after 24 hrs; assay type: functional, cell-based
T1 sequence (P04150 whole entry): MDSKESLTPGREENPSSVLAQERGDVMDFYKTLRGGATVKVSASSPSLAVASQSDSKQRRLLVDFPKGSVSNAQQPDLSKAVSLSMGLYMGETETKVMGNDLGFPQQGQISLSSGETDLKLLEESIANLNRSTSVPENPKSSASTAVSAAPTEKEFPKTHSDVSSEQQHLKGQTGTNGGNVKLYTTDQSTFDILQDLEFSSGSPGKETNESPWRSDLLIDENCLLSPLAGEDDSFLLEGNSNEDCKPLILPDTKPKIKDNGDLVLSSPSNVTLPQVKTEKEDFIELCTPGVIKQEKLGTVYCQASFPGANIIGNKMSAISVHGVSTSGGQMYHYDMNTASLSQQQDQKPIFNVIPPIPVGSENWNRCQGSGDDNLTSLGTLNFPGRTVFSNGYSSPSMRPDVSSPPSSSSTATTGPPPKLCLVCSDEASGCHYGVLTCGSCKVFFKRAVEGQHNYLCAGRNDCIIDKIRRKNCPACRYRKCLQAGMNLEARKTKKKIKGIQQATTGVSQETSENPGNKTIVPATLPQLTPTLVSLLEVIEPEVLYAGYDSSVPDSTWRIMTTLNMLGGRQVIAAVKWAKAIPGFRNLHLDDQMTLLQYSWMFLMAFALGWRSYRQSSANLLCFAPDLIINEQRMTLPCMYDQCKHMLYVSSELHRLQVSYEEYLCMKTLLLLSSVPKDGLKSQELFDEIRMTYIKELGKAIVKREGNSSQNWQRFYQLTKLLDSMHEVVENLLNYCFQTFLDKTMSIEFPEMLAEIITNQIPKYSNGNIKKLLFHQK

[2] = target: T1, Glucocorticoid receptor; assay: Activity at GR in human A549 cells by NF-kappaB transrepression assay; assay type: cell-based
[3] = target: T1, Glucocorticoid receptor; assay: Displacement of fluorescent-labeled Dexamethasone from GR by fluorescent polarization assay
[4] = target: T2, Progesterone receptor (Homo sapiens, UniProt P06401); assay: Binding affinity to PR
T2 sequence (P06401 whole entry): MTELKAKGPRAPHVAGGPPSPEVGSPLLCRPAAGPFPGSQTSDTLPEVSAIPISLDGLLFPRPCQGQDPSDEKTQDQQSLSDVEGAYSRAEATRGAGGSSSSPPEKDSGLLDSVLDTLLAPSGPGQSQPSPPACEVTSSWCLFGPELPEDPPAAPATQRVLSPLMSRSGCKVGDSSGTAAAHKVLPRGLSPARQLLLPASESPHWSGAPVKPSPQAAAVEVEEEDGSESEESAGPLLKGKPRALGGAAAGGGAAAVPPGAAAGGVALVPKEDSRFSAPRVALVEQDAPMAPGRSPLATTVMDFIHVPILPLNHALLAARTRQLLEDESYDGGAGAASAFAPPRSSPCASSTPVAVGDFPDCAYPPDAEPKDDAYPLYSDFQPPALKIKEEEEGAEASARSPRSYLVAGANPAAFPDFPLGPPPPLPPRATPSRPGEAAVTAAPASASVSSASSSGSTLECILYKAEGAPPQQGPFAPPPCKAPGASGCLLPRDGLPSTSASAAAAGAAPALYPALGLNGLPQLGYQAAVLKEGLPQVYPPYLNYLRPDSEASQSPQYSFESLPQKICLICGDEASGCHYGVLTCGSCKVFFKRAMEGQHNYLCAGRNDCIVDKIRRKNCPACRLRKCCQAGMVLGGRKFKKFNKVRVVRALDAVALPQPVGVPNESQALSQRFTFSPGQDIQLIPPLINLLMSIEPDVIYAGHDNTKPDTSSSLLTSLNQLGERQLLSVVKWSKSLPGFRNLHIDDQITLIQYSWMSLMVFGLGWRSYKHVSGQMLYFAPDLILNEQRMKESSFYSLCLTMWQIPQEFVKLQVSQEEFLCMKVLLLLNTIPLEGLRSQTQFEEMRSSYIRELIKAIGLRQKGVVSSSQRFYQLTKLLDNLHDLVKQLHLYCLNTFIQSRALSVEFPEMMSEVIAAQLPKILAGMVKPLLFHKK

[5] = target: T3, Androgen receptor (Homo sapiens, UniProt P10275)
T3 sequence (P10275 whole entry): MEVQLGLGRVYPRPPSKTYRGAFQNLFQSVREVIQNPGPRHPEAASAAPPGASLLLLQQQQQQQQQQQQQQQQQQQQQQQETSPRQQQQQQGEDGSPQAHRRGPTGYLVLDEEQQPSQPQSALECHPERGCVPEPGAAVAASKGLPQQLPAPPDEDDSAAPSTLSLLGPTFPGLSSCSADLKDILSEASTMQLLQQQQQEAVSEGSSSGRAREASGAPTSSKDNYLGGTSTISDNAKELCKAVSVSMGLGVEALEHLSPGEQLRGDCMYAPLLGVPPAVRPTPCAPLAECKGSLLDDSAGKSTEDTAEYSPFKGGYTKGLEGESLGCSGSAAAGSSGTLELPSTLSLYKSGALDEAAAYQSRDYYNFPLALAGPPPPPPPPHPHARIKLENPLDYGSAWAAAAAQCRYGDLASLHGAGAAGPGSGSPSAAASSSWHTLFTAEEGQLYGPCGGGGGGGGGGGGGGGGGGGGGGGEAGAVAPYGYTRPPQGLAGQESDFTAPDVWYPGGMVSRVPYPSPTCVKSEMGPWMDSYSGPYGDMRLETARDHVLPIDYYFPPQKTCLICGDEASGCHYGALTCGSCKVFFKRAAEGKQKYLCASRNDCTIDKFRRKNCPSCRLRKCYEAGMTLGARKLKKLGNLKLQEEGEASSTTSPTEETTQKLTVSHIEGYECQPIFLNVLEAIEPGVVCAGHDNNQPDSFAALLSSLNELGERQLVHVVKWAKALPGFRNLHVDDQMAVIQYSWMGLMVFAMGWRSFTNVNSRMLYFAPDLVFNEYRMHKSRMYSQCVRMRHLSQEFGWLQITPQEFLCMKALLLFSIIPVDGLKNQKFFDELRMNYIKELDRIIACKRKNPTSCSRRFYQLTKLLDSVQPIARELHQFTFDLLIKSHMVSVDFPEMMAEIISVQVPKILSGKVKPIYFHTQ

CCCS(=O)(=O)Nc1ccc(-c2ccc3c(cnn3-c3ccc(F)cc3)c2)c(C(F)(F)F)c1
IC50 [1]: 2 µM
IC50 [2]: > 10 µM
IC50 [3]: 0.0158 µM
IC50 [4]: > 10 µM
IC50 [5]: 3.16 µM

CC(C)c1cc(C(C)C)c(S(=O)(=O)Nc2ccc(-c3ccc4c(cnn4-c4ccc(F)cc4)c3)c(C(F)(F)F)c2)c(C(C)C)c1
IC50 [1]: > 10 µM
IC50 [2]: > 10 µM
IC50 [3]: 0.251 µM
IC50 [4]: > 10 µM
IC50 [5]: > 10 µM

Cc1ccc(-c2ccc3c(cnn3-c3ccc(F)cc3)c2)cc1
IC50 [2]: > 10 µM
IC50 [3]: > 10 µM
IC50 [4]: > 10 µM
IC50 [5]: > 10 µM

CCOc1ccccc1-c1ccc2c(cnn2-c2ccc(F)cc2)c1
IC50 [2]: > 10 µM
IC50 [3]: 0.501 µM
IC50 [4]: > 10 µM
IC50 [5]: > 10 µM

CCCNS(=O)(=O)c1ccc(-c2ccc3c(cnn3-c3ccc(F)cc3)c2)c(C(F)(F)F)c1
IC50 [1]: 3.16 µM
IC50 [2]: > 10 µM
IC50 [3]: 0.0316 µM
IC50 [4]: 0.794 µM
IC50 [5]: 6.31 µM

CC(C)CNS(=O)(=O)c1ccc(-c2ccc3c(cnn3-c3ccc(F)cc3)c2)c(C(F)(F)F)c1
IC50 [1]: 3.16 µM
IC50 [2]: > 10 µM
IC50 [3]: 0.0398 µM
IC50 [4]: 0.631 µM
IC50 [5]: 6.31 µM

Cc1cccc(-c2ccc3c(cnn3-c3ccc(F)cc3)c2)c1
IC50 [2]: > 10 µM
IC50 [3]: 3.16 µM
IC50 [4]: > 10 µM
IC50 [5]: > 10 µM

CCS(=O)(=O)Nc1ccc(-c2ccc3c(cnn3-c3ccc(F)cc3)c2)c(C(F)(F)F)c1
IC50 [1]: 2 µM
IC50 [2]: > 10 µM
IC50 [3]: 0.01 µM
IC50 [4]: > 10 µM
IC50 [5]: 5.01 µM

CCNS(=O)(=O)c1ccc(-c2ccc3c(cnn3-c3ccc(F)cc3)c2)c(C(F)(F)F)c1
IC50 [1]: 2 µM
IC50 [2]: > 10 µM
IC50 [3]: 0.02 µM
IC50 [4]: 1.58 µM
IC50 [5]: 3.16 µM

Fc1ccc(-n2ncc3cc(-c4ccc(C(F)(F)F)cc4)ccc32)cc1
IC50 [2]: > 10 µM
IC50 [3]: > 10 µM
IC50 [4]: > 10 µM
IC50 [5]: > 10 µM

O=S(=O)(NCCO)c1ccc(-c2ccc3c(cnn3-c3ccc(F)cc3)c2)c(C(F)(F)F)c1
IC50 [1]: 2 µM
IC50 [2]: > 10 µM
IC50 [3]: 0.0158 µM
IC50 [4]: 5.01 µM
IC50 [5]: 10 µM

N#Cc1ccccc1-c1ccc2c(cnn2-c2ccc(F)cc2)c1
IC50 [2]: > 10 µM
IC50 [3]: 0.398 µM
IC50 [4]: > 10 µM
IC50 [5]: > 10 µM

N#Cc1cccc(-c2ccc3c(cnn3-c3ccc(F)cc3)c2)c1
IC50 [2]: > 10 µM
IC50 [3]: > 2.51 µM
IC50 [4]: > 10 µM
IC50 [5]: > 10 µM

N#Cc1ccc(-c2ccc3c(cnn3-c3ccc(F)cc3)c2)cc1
IC50 [2]: > 10 µM
IC50 [3]: > 10 µM
IC50 [4]: 2 µM
IC50 [5]: > 10 µM

Cc1ccccc1-c1ccc2c(cnn2-c2ccc(F)cc2)c1
IC50 [2]: > 10 µM
IC50 [3]: 1.26 µM
IC50 [4]: 6.31 µM
IC50 [5]: > 10 µM
